Assays:
[1] = system: EV-D68 US/MO/14-18947; experiment: Plaque assay, EV-D68 US/MO/14-18947 in RD cells; format: cell-based; details: Enterovirus D, EVD68, RD
[2] = system: EV-A71 Tainan/4643/1998; experiment: Plaque assay, EV-A71 Tainan/4643/1998; format: cell-based; details: Enterovirus A, EVA71, plaque assay
[3] = system: EV-D68 US/MO/14-18947; experiment: Time-of-addition experiment, single cycle of EV-D68 replication in RD cells; format: cell-based, Enterovirus D68; details: 3 µM
[4] = system: EV-D68 US/MO/14-18947 passaged viruses; experiment: Serial passage experiment 1: drug sensitivity of passaged viruses; format: cell-based, Enterovirus D68; details: Enterovirus D, CPE assay
[5] = system: EV-D68 US/IL/14-18952; experiment: EV-D68 infection neonatal mouse model; format: in vivo, Swiss Webster mice; details: for Weight at DPI14: 50 mg/kg i.p. daily
[6] = Drug concentration in the spinal cord by LC-MS/MS; format: in vivo, Swiss Webster mouse pups; details: Swiss Webster, mouse, ip, 50 mg/kg, one hour after the intraperitoneal injection
[7] = Tolerability in uninfected Jun6504-treated mice; format: in vivo; details: 50 mg/kg dose, uninfected treated animals
[8] = system: EV-D68; experiment: IHC staining of spinal cord sections of EV-D68-infected mice; format: in vivo, Swiss Webster pups; details: 8 DPI, 24-h delayed treatment model
[9] = system: EV-D68; details: AG129 mice; cited from earlier work
[10] = system: EV-D68; details: EV-D68 infection neonatal mouse model; cited from earlier work
[11] = system: EV-D68-associated AFM; details: patients with EV-D68-associated AFM; cited from earlier work
[12] = system: EV-D68; details: EV-D68 animal infection models; cited from earlier work

CC(C)n1ncc2c(C(=O)NCC3(C)CNC3)cc(C3CC3)nc21 [Jun6504]
EC50 [1]: 0.13 µM
EC50 [2]: 0.22 µM
effect on antiviral potency ([3]; added at 5 hpi): significant reduction in the antiviral potency
effect on efficacy ([3]; added at 7 hpi): almost complete loss of efficacy
effect on EV-D68 amplification ([3]; added before or at 3 h post-infection): completely inhibited EV-D68 amplification
EC50 ([4]; EVD68, P3 virus, selection pressure 400 nM): 0.8 µM
EC50 ([4]; EVD68, P6 virus, selection pressure 3.2 μM): 3.38 µM
Weight at DPI14 ([5]; 24-h delayed treatment model, control 8.65 ± 0.23 g): 9.59 ± 0.27 g
Viral titer in spinal cord ([5]; DPI5 after 4 daily doses, 24-h delayed model, control 19,834 ± 11,519): 4520 ± 1796 TCID50
Weight at DPI14 ([5]; immediate treatment model, control 7.92 ± 0.46 g): 9.29 ± 0.14 g
concentration at 1 h [6]: ~575 ng/g
tolerability [7]: no signs of pain, weight loss, or death were observed
EV-D68-infected (NeuN+) neurons in the cervical enlargement [8]: no infected (NeuN+) neurons were observed
ChAT-positive motor neurons in lumbar spinal cord ([8]; treated animals with paralysis score 0): many ChAT-positive motor neurons present

CC(C)S(=O)(=O)n1c(N)nc2ccc(/C(=N/O)c3ccccc3)cc21 [enviroxime]
therapeutic efficacy [9]: no therapeutic efficacy

CNCCC(Oc1ccc(C(F)(F)F)cc1)c1ccccc1 (stereo not shown) [fluoxetine]
effect on motor impairment and viral titers [10]: did not reduce motor impairment or viral titers in the muscle and spinal cord
neurological outcomes [11]: failed to improve neurological outcomes

N=C(N)N [guanidine]
in vivo antiviral activity [12]: have shown in vivo antiviral activity

CCOC(=O)c1ccc(OCCC2CCN(c3ccc(C)nn3)CC2)cc1 [pirodavir]
therapeutic efficacy [9]: no therapeutic efficacy

Cc1cc(CCCOc2c(C)cc(-c3noc(C(F)(F)F)n3)cc2C)on1 [pleconaril]
therapeutic efficacy [9]: no therapeutic efficacy

NC(=O)c1ncn([C@@H]2O[C@H](CO)[C@@H](O)[C@H]2O)n1 [ribavirin]
therapeutic efficacy [9]: no therapeutic efficacy

CCOC(=O)/C=C/[C@H](C[C@@H]1CCNC1=O)NC(=O)[C@@H](CC(=O)[C@@H](NC(=O)c1cc(C)on1)C(C)C)Cc1ccc(F)cc1 [rupintrivir]
therapeutic efficacy [9]: no therapeutic efficacy
